Read-outs that look alike come from different tables or passages of the source. Values belong to the compound of their own block, whether it stands above or below them.
Tests used:
[1] = system: cigarette smoke-induced cell accumulation and biomarkers in murine BALF; assay: Cigarette smoke model; type: in vivo, mouse; details: 0.3-10 mg/kg, p.o.
[2] = system: cigarette smoke-induced cell accumulation and biomarkers in murine BALF; assay: Cigarette smoke model; type: in vivo, mouse; details: dose used for co-administration
Experimental: A/J mice (males, 5 weeks old) were exposed to cigarette smoke (4% cigarette smoke, diluted with compressed air) for 30 min/day for 11 days using a Tobacco Smoke Inhalation Experiment System for small animals (Model SIS-CS; Sibata Scientific Technology, Tokyo, Japan). Test substances were administered once daily for 3 days after the final cigarette smoke exposure (intra-nasal dose comprising 35 μL of solution in 50% DMSO/isotonic saline).
At 12 hr after administration of the last dose, animals were anesthetized, the trachea was cannulated and bronchial alveolar lavage (BAL) was carried out by the instillation into and then withdawal from the lungs, of PBS (100 mL/kg). Total cell numbers in the BALF samples were measured using a haemocytometer under a phase-contrast microscope. The proportions of alveolar macrophages and neutrophils were determined by FACS analysis using anti-mouse MOMA2-FITC (macrophage) or anti-mouse 7/4 (neutrophil).
Cells were suspended in PBS and were incubated with anti-MOMA2-FITC (2 μg/mL, Catalogue no SM065F, Acris Antibodies GmbH, Herford, Germany) or anti-7/4-FITC (2 μg/mL, Catalogue no CL050F, Acris Antibodies GmbH, Herford, Germany) for 30 min at 30° C., and also counterstained with propidium iodide (2 μg/mL) to allow exclusion of necrotic cells. The cells were washed with PBS, and transferred to FACS tubes. Samples was set in a flow cytometer (ALTRA II; Beckman Coulter Japan, Tokyo, Japan), and a single-parameter FL2 [PMT2] (FITC) histogram with log x-axis was plotted to illustrate relative intensity of FITC.
Data files are stored for subsequent analysis using Kaluza analysis software (ver. 1.2) to calculate the proportion of each cell type. The levels of CXCL1(KC), MCP1, TNFα, IL-17 or osteopontin in BALF were determined using Quentikine® mouse KC, MCP1, TNFα, IL-17 or osteopontin ELISA kit (R&D systems, Inc., Minneapolis, Minn., USA). The presence of malondialdehyde was measured using OxiSelect® TBARS Assay Kit (MDA Quantitation; Cell Biolabs Inc, San Diego, Calif., USA).

PI3K α = PI3K α (Homo sapiens (Human), UniProt P42336); assay: PI3K enzyme inhibition assay (HTRF TR-FRET); type: biochemical
Chain of PI3K α (P42336 whole entry, species assumed): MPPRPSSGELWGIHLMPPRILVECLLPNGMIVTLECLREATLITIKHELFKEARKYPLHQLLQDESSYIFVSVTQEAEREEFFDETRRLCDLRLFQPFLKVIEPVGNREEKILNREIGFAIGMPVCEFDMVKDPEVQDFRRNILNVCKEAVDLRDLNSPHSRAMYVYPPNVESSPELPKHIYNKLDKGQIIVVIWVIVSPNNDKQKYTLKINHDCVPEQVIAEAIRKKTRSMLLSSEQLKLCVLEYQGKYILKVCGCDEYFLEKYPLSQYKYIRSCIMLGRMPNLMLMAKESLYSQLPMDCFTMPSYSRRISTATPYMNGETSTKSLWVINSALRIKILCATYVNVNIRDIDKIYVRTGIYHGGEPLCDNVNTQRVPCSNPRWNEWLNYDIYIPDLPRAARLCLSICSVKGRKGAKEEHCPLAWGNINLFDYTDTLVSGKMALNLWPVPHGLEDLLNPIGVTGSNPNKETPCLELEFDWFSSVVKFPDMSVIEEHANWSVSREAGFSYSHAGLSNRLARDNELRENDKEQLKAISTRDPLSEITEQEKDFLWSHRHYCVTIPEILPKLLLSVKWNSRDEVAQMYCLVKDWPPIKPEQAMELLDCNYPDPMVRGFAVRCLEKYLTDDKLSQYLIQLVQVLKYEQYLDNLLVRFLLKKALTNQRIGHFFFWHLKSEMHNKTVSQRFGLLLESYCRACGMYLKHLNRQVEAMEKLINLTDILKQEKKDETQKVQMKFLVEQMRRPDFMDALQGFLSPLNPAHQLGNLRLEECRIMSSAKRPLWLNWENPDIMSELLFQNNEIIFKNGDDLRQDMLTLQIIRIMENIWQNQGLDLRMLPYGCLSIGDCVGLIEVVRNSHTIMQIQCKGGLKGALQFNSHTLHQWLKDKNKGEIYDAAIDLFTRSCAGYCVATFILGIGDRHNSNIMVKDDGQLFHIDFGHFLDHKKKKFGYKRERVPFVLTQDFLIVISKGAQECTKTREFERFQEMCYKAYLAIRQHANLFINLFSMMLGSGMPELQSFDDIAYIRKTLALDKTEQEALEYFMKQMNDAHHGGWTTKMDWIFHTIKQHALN
Chain of PI3K α (P27986 whole entry partner, species assumed): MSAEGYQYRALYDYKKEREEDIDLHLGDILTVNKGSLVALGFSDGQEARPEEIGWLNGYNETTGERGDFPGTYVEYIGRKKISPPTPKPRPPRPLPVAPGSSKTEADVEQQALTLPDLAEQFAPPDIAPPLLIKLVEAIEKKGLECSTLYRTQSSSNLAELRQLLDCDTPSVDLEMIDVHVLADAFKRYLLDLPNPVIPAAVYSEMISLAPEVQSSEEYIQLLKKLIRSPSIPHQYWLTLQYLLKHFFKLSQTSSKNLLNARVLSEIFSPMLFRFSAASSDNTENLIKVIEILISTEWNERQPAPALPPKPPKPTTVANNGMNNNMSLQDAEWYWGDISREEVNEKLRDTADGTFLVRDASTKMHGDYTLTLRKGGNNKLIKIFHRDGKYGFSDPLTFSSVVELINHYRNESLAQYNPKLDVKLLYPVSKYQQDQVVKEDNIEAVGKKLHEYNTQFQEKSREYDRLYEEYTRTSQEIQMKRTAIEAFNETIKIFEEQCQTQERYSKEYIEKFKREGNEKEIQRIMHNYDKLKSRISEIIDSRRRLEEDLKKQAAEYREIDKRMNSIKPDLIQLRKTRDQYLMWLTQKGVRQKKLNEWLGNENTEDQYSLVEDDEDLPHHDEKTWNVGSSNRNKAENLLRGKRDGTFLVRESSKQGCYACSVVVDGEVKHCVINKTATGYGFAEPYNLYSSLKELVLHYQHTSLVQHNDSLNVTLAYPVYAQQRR
Text: (§1) The PI3K enzymes catalyse the phosphorylation of phosphatidylinositol 4,5-biphosphate (PIP2) to phosphatidylinositol 3,4,5-triphosphate (PIP3) in the presence of ATP and Mg^2+ ions. The PIP3 product can be detected by displacement of biotin-PIP3 from energy transfer complexes consisting of europium labelled anti-GST monoclonal antibody, a GST-tagged Pleckstrin homology (PH) domain, biotinylated PIP3 and streptavidin-allophycocyanin (APC) by the time-resolved fluorescence resonance energy transfer (TR-FRET) (HTRF®PI3K enzyme assay, Millipore). Excitation, at 330 nm, of europium in the complex results in an energy transfer to the APC and a fluorescent emission at 665 nm although europium itself emits at its characteristic wavelength of 620 nm. The PIP3 product formed by PI3K activity displaces biotin-PIP3 from the complex and results in a loss of energy transfer (decreasing signal).
(§2) The compound to be tested was added, at the desired final concentrations, to a mixture of PIP2 substrate and a recombinant PI3K enzyme (either α, β or δ isoforms, ex Millipore, or γ isoform [p110γ+p101 construct], ex United States Biological, Swampscott, Mass.) and the mixture incubated for 2 hr at RT. […] A stopping solution containing biotinylated PIP3 and the detection mix containing the GST tagged GRP1 pleckstrin homology (PH) domain and fluorophores were then added and the mixture was incubated at RT for 15-18 hr, prior to detection in a fluorescence microplate reader (Synergy 4, BioTek UK, Bedfordshire, UK).
(§3) The results were calculated according to the formula: APC signal (emission at 665 nm)/europium signal (emission at 620 nm)×10^4.

PI3K γ = PI3K γ (Homo sapiens (Human), UniProt P48736); assay: PI3K enzyme inhibition assay (HTRF TR-FRET); type: biochemical
Chain of PI3K γ (P48736 whole entry, species assumed): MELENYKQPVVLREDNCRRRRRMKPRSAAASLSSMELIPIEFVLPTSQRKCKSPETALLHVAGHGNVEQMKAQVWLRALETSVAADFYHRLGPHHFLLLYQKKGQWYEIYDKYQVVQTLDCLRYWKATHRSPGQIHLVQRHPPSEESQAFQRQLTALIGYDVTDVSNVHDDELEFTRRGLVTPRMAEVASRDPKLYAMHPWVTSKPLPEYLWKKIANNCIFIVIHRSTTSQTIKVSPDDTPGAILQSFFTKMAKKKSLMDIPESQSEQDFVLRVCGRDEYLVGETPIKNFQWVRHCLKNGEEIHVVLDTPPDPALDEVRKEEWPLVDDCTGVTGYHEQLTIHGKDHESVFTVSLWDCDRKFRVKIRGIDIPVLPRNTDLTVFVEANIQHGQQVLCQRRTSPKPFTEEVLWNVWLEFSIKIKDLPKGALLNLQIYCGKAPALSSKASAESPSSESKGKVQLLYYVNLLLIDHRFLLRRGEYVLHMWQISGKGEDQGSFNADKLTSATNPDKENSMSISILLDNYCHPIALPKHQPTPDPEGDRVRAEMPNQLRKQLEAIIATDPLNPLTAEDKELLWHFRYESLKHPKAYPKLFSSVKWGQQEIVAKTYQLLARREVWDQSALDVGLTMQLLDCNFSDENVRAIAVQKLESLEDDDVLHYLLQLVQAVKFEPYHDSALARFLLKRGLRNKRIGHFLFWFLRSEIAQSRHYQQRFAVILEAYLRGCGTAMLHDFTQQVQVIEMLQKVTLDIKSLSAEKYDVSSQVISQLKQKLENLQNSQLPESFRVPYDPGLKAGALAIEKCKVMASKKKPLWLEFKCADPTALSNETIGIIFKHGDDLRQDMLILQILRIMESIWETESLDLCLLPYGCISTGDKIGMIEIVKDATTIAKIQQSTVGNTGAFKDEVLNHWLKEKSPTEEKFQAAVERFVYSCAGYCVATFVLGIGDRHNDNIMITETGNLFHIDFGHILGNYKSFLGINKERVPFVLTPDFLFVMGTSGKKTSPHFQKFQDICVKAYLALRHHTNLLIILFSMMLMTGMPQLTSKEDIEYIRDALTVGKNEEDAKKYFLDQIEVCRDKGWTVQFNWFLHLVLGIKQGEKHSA
Chain of PI3K γ (Q8WYR1 whole entry partner, species assumed): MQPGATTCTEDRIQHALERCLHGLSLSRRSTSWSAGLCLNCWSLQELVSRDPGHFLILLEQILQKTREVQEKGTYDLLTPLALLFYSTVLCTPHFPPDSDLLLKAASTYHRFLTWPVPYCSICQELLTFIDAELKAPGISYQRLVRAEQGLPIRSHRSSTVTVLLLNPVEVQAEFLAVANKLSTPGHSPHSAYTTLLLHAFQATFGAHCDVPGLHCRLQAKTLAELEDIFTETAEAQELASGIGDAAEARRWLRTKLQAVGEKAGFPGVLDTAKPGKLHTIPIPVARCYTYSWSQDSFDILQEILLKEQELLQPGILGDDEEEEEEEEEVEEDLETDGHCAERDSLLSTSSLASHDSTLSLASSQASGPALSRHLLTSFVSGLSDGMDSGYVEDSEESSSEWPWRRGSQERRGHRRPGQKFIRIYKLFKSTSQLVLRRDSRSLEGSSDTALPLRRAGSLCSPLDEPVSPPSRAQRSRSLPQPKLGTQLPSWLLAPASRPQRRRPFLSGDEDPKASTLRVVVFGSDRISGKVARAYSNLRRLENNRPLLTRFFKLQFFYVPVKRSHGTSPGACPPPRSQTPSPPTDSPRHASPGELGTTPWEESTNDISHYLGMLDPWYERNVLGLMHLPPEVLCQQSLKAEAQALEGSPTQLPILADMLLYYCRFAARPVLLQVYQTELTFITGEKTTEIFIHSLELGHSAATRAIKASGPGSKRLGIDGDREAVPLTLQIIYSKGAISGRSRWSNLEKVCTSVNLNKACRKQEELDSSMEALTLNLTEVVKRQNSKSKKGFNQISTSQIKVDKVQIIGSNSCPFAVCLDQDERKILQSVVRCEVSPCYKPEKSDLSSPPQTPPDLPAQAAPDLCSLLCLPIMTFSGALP
Text: as §1, §2, §3

PI3K δ = PI3K δ (Homo sapiens (Human), UniProt O00329); assay: PI3K enzyme inhibition assay (HTRF TR-FRET); type: biochemical
Chain of PI3K δ (O00329 whole entry, species assumed): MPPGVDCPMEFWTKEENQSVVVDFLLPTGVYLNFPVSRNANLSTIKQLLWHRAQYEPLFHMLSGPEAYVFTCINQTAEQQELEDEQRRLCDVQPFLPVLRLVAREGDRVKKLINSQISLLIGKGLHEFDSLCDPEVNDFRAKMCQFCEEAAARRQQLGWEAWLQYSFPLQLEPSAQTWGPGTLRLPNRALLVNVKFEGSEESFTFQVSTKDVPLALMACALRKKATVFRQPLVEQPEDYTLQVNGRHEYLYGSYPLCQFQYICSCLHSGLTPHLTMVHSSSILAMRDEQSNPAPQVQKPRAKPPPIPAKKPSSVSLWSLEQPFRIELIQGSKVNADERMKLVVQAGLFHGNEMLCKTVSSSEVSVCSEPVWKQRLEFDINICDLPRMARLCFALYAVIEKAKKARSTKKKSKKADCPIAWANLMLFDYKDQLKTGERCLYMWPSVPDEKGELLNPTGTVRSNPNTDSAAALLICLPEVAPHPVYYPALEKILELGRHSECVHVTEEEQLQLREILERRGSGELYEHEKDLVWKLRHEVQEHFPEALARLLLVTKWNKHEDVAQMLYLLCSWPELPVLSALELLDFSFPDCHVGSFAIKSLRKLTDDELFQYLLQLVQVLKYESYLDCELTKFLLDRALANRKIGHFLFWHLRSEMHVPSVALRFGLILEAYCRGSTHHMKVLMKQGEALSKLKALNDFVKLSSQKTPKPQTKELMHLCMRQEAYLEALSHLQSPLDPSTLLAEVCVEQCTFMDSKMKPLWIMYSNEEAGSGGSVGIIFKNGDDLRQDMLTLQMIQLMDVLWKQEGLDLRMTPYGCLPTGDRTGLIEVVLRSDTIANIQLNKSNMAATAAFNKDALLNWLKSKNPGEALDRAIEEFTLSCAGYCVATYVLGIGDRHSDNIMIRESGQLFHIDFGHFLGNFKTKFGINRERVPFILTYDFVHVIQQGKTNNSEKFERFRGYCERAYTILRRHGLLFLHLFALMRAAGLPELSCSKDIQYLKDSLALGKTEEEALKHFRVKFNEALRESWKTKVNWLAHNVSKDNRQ
Chain of PI3K δ (P27986 whole entry partner, species assumed): as the sequence (P27986 whole entry partner, species assumed) above
Text: as §1, §2, §3

PI3K β = PI3K β (Homo sapiens (Human), UniProt P42338); assay: PI3K enzyme inhibition assay (HTRF TR-FRET); type: biochemical; details: read-out: PI3 Kinase Inhibition IC50 value at state isozyme, β
Text: as §1
The compound to be tested was added, at the desired final concentrations, to a mixture of PIP2 substrate and a recombinant PI3K enzyme (either α, β or δ isoforms, ex Millipore, or γ isoform [p110γ+p101 construct], ex United States Biological, Swampscott, Mass.) and the mixture incubated for 2 hr at RT. Following this incubation period, ATP (10 μM) was added to the enzyme/compound/PIP2 substrate mixture and the resulting mixture was incubated for a further 30 min at RT. A stopping solution containing biotinylated PIP3 and the detection mix containing the GST tagged GRP1 pleckstrin homology (PH) domain and fluorophores were then added and the mixture was incubated at RT for 15-18 hr, prior to detection in a fluorescence microplate reader (Synergy 4, BioTek UK, Bedfordshire, UK).
The results were calculated according to the formula: APC signal (emission at 665 nm)/europium signal (emission at 620 nm)×10^4. The percentage inhibition of each reaction was calculated relative to DMSO treated control, and the 50% inhibitory concentration (IC50 value) then calculated from the concentration-response curve.

d-U937 cells = assay: MTT assay, cell viability; type: cell-based, human; details: 10 μg/mL
Experimental: PMA-differentiated U937 cells were pre-incubated with test compound (10 μg/mL) or vehicle for 4 hr in 5% FCS or 10% FCS for 24 hr. The supernatant was replaced with new media (200 μL) and MTT stock solution (10 μL, 5 mg/mL) was added to each well. After 1 hr incubation, the media were removed, 200 μL of DMSO was added to each well and the plates were shaken lightly for 1 hr prior to reading the absorbance at 550 nm. The percentage loss of cell viability was calculated for each well relative to vehicle (0.5% DMSO)-treatment.

SMILES: C[C@@H]1C[C@H]2[C@@H]3CCC4=CC(=O)C=C[C@]4(C)[C@@]3(F)[C@@H](O)C[C@]2(C)[C@@]1(O)C(=O)CO [dexamethasone]
activity in cigarette smoke model (in words) [1]: inactive

SMILES: CCC(=O)O[C@]1(C(=O)SCF)[C@H](C)C[C@H]2[C@@H]3C[C@H](F)C4=CC(=O)C=C[C@]4(C)[C@@]3(F)[C@@H](O)C[C@@]21C [fluticasone propionate, reference compound]
effect as monotherapy in cigarette smoke model (in words) [2]: lacks any significant effect

IC50 (PI3K α; read-out: PI3 Kinase Inhibition IC50 value at state isozyme, α): > 14200 nM
inhibition of PI3K γ compared with compound of formula (I) (in words) (PI3K γ): significantly less active
IC50 (PI3K γ; read-out: PI3 Kinase Inhibition IC50 value at state isozyme, γ): 577 nM
inhibition of PI3K δ compared with compound of formula (I) (in words) (PI3K δ): significantly less active
IC50 (PI3K δ; read-out: PI3 Kinase Inhibition IC50 value at state isozyme, δ): 17 nM
IC50 (PI3K β): > 14200 nM
SMILES: Nc1ncnc2c1c(-c1cc(O)cc(F)c1)nn2Cc1nc2cccc(C#CCOCCOCCO)c2c(=O)n1Cc1ccccc1C(F)(F)F [Compound (Ia), 2-((4-Amino-3-(3-fluoro-5-hydroxyphenyl)-1H-pyrazolo[3,4-d]pyrimidin-1-yl)methyl)-5-(3-(2-(2-hydroxyethoxy)ethoxy)prop-1-yn-1-yl)-3-(2-(trifluoromethyl)benzyl)quinazolin-4(3H)-one]
Cell Viability MTT Assay in d-U937 cells at 4 hr (d-U937 cells; 4 hr): −ve (−ve indicates a value of <30% inhibition at 10 μg/mL)
Cell Viability MTT Assay in d-U937 cells at 24 hr (d-U937 cells; 24 hr): −ve (−ve indicates a value of <30% inhibition at 10 μg/mL)

IC50 (PI3K α; read-out: IC50 Values for PI3K inhibition at isozyme indicated, PI3K α): 653 nM
IC50 (PI3K γ; read-out: IC50 Values for PI3K inhibition at isozyme indicated, PI3K γ): 120 nM
IC50 (PI3K δ; read-out: IC50 Values for PI3K inhibition at isozyme indicated, PI3K δ): 5.7 nM
SMILES: COCCOCCOCC#Cc1cccc2nc(Cn3nc(-c4cccc(O)c4)c4c(N)ncnc43)n(Cc3ccccc3F)c(=O)c12 [Example 50, 2-((4-amino-3-(3-hydroxyphenyl)-1H-pyrazolo[3,4-d]pyrimidin-1-yl)methyl)-3-(2-fluorobenzyl)-5-(3-(2-(2-methoxyethoxy)ethoxy)prop-1-ynyl) quinazolin-4(3H)-one, reference compound]
